Measured values published in patent US20180064780A1, “SHEAR CONTROLLED RELEASE FOR STENOTIC LESIONS AND THROMBOLYTIC THERAPIES” (PRESIDENT AND FELLOWS OF HARVARD COLLEGE, priority 2010, published 2018).

Experiments:
fibrin clots = target: T1, fibrin clots (Homo sapiens, UniProt P02671+P02675+P02679); test: Microfluidic model of vascular embolism (fibrin clot lysis); format: biochemical; settings: t-PA 50 ng/ml; within 1 hour; 10 dyne/cm^2 in unobstructed channel
T1 construct: purchased Enzyme Research Laboratories, IN (fibrinogen, alpha-thrombin); Cell Sciences, MA (plasminogen)
T1 sequence (P02671 36-629 limits assumed): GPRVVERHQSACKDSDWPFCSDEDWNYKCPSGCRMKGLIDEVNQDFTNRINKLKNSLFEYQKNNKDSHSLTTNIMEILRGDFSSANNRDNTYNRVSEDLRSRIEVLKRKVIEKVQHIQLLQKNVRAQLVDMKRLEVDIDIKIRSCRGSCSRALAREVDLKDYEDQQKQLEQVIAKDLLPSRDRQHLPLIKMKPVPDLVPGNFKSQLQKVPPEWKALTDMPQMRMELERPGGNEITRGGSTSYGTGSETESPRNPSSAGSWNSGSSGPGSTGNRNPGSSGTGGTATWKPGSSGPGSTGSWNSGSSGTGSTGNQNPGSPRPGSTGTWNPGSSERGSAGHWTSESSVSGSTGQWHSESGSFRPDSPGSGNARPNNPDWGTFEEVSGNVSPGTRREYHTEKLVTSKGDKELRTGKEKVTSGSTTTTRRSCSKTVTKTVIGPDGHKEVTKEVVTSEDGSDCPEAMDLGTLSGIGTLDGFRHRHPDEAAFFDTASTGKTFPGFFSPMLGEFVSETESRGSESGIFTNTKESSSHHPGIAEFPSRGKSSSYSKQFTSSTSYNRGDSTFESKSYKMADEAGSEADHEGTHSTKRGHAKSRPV
T1 sequence (P02675 45-491 limits assumed): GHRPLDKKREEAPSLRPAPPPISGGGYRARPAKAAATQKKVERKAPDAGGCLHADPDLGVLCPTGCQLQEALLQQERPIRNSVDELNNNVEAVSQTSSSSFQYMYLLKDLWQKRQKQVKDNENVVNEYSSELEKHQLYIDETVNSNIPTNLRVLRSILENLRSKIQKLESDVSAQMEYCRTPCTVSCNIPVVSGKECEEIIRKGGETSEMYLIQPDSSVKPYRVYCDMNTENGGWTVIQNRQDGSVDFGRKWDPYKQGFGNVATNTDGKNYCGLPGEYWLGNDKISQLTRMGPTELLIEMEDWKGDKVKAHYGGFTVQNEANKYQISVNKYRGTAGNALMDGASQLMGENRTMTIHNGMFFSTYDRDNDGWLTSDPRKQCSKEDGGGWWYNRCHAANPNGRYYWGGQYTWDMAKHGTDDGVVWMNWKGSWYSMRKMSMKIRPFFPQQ
T1 sequence (P02679 27-437 isoform P02679-2 limits assumed): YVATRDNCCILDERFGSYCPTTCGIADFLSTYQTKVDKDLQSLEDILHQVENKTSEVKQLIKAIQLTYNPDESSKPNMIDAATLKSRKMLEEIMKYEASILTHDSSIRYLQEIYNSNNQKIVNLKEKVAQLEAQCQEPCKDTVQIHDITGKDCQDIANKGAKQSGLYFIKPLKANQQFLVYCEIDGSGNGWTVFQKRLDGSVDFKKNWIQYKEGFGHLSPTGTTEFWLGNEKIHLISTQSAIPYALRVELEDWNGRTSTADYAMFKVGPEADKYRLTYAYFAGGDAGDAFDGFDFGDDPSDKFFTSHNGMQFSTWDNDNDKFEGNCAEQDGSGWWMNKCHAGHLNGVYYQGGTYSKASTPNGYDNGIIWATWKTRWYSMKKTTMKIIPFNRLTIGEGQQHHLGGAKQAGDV
Source text: Microfluidic Models of Vascular Embolism—
Microfluidic devices with a narrowed cross-sectional area (80 μm high×0.5 mm wide s 200 mm long) were fabricated using soft lithography as described above. Fibrin clots formed as described below that were infused into the main channel lodged and obstructed the flow in these smaller channels. A solution of t-PA or t-PA coated microaggregates was infused at a flow rate corresponding to a shear stress of 10 dyne/cm^2 in an unobstructed channel. Prior to infusion of the t-PA solutions, bovine plasminogen (Cell Sciences, MA) was added to a final concentration of 2.2 μM (S. L. Diamond, Annual review of biomedical engineering 1, 427 (1999)). During the fibrinolysis process, the fibrin clots size were monitored in real-time (images acquired every 30 sec) on an inverted Zeiss microscope.
Experimental Fibrin Emboli—
Fibrin clots were formed by adding CaCl2 (20 mM) and human α-thrombin (1 units/ml final concentrations, Enzyme Research Laboratories, IN) to human fibrinogen (5 mg/ml, Enzyme Research Laboratories, IN), as previously described (J. C. Murciano et al., Nature biotechnology 21, 891 (2003) and C. K. Lam, T. Yoo, B. Hiner, Z. Liu, J. Grutzendler, Nature 465, 478 (2010)). […] The diameter of the resulting fibrin beads was determined by optical microscopy to be ˜[…].

[1] = test system: ex vivo whole mouse lung with fibrin emboli; test: Mouse pulmonary embolism model (ex vivo whole lung ventilation-perfusion); format: in vivo
Experimental: Mouse Pulmonary Embolism Model—
Male 6-8 week-old C57BL/6 mice (Jackson Laboratory, Bar Harbor, Me.) were weighed and anesthetized with Avertin (200 mg/kg IP). The trachea was incised via surgical tracheotomy, and cannulated with a blunted 22G stainless steel needle tip. The lungs were subsequently ventilated at a rate of 60 breaths/min, with a Peak Inspiratory Pressure (Pip) of 10 cm H2O and a Positive End Expiratory Pressure (Peep) of 3 cm H2O with compressed air using a mouse ventilator (VCM-R, Hugo Sachs Elektroniks, Germany). Ex vivo ventilation and perfusion of the mouse lung was performed using a IL1 ex vivo mouse lung ventilation-perfusion system (Harvard Apparatus, Natick, Mass.), (D. Huh et al., Science 328, 1662 (2010)). Following initiation of mechanical ventilation, the chest was opened via thoracotomy, and heparin (100 IU) was injected into the right ventricle. […] A suture was placed around the pulmonary artery and aorta. Cannulae made from polyethylene tubing (PE90 (0.86 mm ID, 1.7 mm OD)) were placed in the pulmonary artery (PA) and left atrium (LA), and lungs were perfused with RPMI-1640 with 4% Bovine Albumin (Probumin™ Reagent Grade, Billerica, Mass.) and 0.7 g NaCl/500 mL via a roller pump (ISM 834C, Ismatec SA, Switzerland) set at a constant flow rate of 0.5 ml/min in a recirculating system with a system volume of 6 mL. Perfusate and lung temperatures were maintained at 37° C. by housing the entire ex-vivo ventilation perfusion system inside a standard cell incubator without CO2 (Forma Scientific, Ohio). Humidity was maintained in the range of 90-95%. Pulmonary arterial and venous pressures and airway flow and pressures were recorded with dedicated Type 379 vascular pressure and DLP2.5 flow and MPX Type 399/2 airway pressure transducers and TAM-A amplifiers (Hugo Sachs Elektroniks, Germany). Vascular pressures were zeroed at the mid lung level prior to each experiment and recorded using Polyview16© software (Grass Technologies, West Warwick, R.I.) running on a desktop PC running Windows XP SP2 (Microsoft Corporation, Redmond, Wash.).
Prior to injection of experimental fibrin clots (prepared as above), the measured parameters were allowed to stabilize and remain stable for a period of more than 10 minutes. A solution of fibrin clots suspended in perfusion medium was infused at a flow rate of 0.1 ml/min and mixed with the regular perfusion line entering the pulmonary artery. The fibrin clot suspension was infused until the pulmonary artery pressure increased to ˜three-fold higher than the baseline. The system was then allowed to equilibrate and remain stable for at least 10 minutes. Next, tPA-coated platelet mimetics or free soluble tPA was added to the main perfusion line and circulated through the perfusion system. As in the microfluidic device experiments, when tPA was perfused, plasminogen was added to obtain a final concentration of 2.2 μM. Pulmonary artery and vein pressures were acquired continuously during the perfusion period. At the end of each experiment, lungs were perfused with 4% paraformaldehyde, and prepared for sectioning by incubating in 4% paraformaldehyde, then sucrose and OCT. All experimental animal protocols were approved by the Institutional Animal Care and Use Committee at Children's Hospital Boston and Harvard Medical School.

tissue plasminogen activator [free t-PA]
reduction of emboli (clot) size (fibrin clots): < 5%
dose required for similar effects on thrombolysis relative to tPA-coated platelet mimetics ([1]; 5000 ng/ml vs 50 ng/ml): 100 fold
effect on pulmonary artery pressure ([1]; 10 times higher dose, 500 ng/ml (FIG. 5G)): did not reduce the pulmonary artery pressure
effect on pulmonary artery pressure ([1]; tPA 50 ng/ml (FIG. 5G)): did not reduce the pulmonary artery pressure
effect on pulmonary artery pressure ([1]; tPA 50 ng/ml (FIG. 5G), listed as soluble tPA): failed to produce any significant clinical response
real-time pulmonary artery pressure: effect on pulmonary hypertension ([1]; tPA 50 ng/ml (FIG. 5H)): ineffective
